For three compounds, Ki results are on record in patent US6245796A, “Tricyclic pyrrole or pyrazole derivative” (priority 1997, dated 2001).

Where a name gives a salt, the structure may show the parent alone. Read-outs that look alike come from different tables or passages of the source.

One assay has as its target 5-HT2C receptor. In words: [3H] 5-HT binding assay, 5-HT2C receptor. The conditions noted are these: Ki=IC50/(1+[L]/[Kd]), read-out: Binding test Ki, 5-HT2C receptor. As for the experimental part:
(§1) The 5-HT2C and 5-HT2A receptors: Carried out by [^3 H] 5-HT binding assay in accordance with the method of A. Pazos et al., Eur. J. Pharmacol., 106, 539-546 (1985) or S. Havlik and S. J. Peroutka, Brain Res., 584, 191-196 (1992).
(§2) Using the above method, a drug concentration which inhibits 50% of receptor binding of ligand (IC50 value) was calculated, and a Ki value which represents affinity for the receptor was obtained by the following formula.
(§3) ([L]: ligand concentration, [Kd]: dissociation constant)

The next assay has as its target 5-HT2A receptor (Homo sapiens, UniProt P28223). In words: biochemical. Format: binding. As for the experimental part: as §1, §2, §3

Sequence of 5-HT2A receptor (P28223 whole entry): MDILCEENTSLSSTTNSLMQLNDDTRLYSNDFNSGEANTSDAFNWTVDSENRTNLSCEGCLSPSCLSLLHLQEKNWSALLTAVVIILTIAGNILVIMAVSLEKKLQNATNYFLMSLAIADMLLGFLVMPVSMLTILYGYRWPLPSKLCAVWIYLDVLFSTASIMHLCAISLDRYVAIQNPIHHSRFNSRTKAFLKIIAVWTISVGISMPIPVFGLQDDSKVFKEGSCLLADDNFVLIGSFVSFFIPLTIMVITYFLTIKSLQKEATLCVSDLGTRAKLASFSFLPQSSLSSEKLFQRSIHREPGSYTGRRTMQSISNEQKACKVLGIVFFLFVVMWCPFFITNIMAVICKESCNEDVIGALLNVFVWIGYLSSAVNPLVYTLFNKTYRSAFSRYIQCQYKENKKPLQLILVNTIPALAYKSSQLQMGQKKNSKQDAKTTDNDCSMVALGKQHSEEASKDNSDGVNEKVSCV

Turning to `NCCn1ncc2ccc3sc(Br)cc3c21` [Example 20, 2-(7-Bromo-1H-thieno[2,3-g]indazol-1-yl)ethylamine hydrochloride], the Ki worked out at 0.8 nM at 5-HT2C receptor and 18 nM at 5-HT2A receptor.
With `COc1nn(C[C@H](C)N)c2c1ccc1occc12` [Example 37, (S)-2-(3-Methoxy-1H-furo[2,3-g]indazol-1-yl)-1-methylethylamine fumarate], the Ki at 5-HT2C receptor was determined as 0.5 nM; at 5-HT2A receptor ([3H] 5-HT binding, Ki=IC50/(1+[L]/[Kd]), read-out: Binding test Ki, 5-HT2A receptor), 8.7 nM.
With `CCc1nn(CCN)c2c1ccc1occc12` [Example 55, 2-(3-Ethyl-1H-furo[2,3-g]indazol-1-yl)ethylamine dihydrochloride], the results for the Ki on 5-HT2C receptor and at 5-HT2A receptor were 4.1 nM and 50 nM, respectively.
